Our source for the IC50 values is patent US7759366B2 (Sanofi-Aventis, priority 2006, dated 2010).

This experiment concerns the target hCB1R (Homo sapiens, UniProt P21554). In words: In vitro functional assay (FLIPR, intracellular Ca2+) with recombinant HEK293 cells, CB1. The class given is cell-based. Further details: expressed in transfected cells; host or cells: HEK293. The conditions noted are these: recombinant HEK293 cells expressing CB1 and Galpha16; 20 min preincubation, then reference agonist; Ca2+ change; read-out: hCB1R: FLIPR; IC50. The text has this:
In Vitro Functional Assays with Recombinant Cells:

Each structure is given as a SMILES string.

hCB1R, sequence (P21554 whole entry): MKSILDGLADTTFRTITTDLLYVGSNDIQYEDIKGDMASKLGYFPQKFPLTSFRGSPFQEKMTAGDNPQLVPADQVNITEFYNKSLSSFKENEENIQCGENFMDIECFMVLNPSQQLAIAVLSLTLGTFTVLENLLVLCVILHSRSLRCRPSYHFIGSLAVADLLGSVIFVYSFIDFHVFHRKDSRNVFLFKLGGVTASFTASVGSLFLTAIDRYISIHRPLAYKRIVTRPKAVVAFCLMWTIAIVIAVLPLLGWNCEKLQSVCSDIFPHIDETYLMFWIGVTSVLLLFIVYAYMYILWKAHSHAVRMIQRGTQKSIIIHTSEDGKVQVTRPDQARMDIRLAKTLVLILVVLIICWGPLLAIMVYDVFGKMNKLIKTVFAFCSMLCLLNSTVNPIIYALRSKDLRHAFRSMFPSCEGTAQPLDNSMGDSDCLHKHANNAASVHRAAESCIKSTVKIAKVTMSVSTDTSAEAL

With `COC(=O)C1=C[C@@H](O)[C@H](O)[C@@H](Oc2ccc(Nc3ccccc3CN3C(=O)N(c4ccc(C#N)c(C(F)(F)F)c4)C(=O)C3(C)C)cc2)O1` [Example 145, methyl (4R,5S,6S)-6-(4-{2-[3-(4-cyano-3-trifluoromethylphenyl)-5,5-dimethyl-2,4-dioxoimidazolidin-1-ylmethyl]phenylamino}phenoxy)-4,5-dihydroxy-5,6-dihydro-4H-pyran-2-carboxylate], the IC50 was 14 nM. Consider `CC1(C)C(=O)N(c2ccc(C#N)c(C(F)(F)F)c2)C(=O)N1Cc1ccccc1Nc1ccc(C(=O)O)c(O)c1` [Example 243], for which the IC50 turned out to be 99 nM. Regarding `CC(C)(C)c1cc(N2C(=O)N(Cc3ccc(F)cc3Nc3ccc(C(=O)O)cc3)C(C)(C)C2=O)ccc1C#N` [Example 169, 4-{2-[3-(3-tert-butyl-4-cyanophenyl)-5,5-dimethyl-2,4-dioxoimidazolidin-1-ylmethyl]-5-fluorophenylamino}benzoic acid], the IC50 came to 9 nM. Then `CC1(C)C(=O)N(c2ccc(C#N)c(C(F)(F)F)c2)C(=O)N1Cc1ccccc1Nc1ccc(C(=O)NCCS(=O)(=O)O)cc1` [Example 164, 2-(4-{2-[3-(4-Cyano-3-trifluoromethylphenyl)-5,5-dimethyl-2,4-dioxoimidazolidin-1-ylmethyl]phenylamino}benzoylamino)ethanesulfonic acid], with 137 nM; and `COC(=O)CN(CC(=O)OC)c1ccc(Nc2ccccc2CN2C(=O)N(c3ccc(C#N)c(C(F)(F)F)c3)C(=O)C2(C)C)cc1` [Example 178], with 4 nM. For the compound `COC(=O)C(Cc1ccc(Nc2ccccc2CN2C(=O)N(c3ccc(C#N)c(C(F)(F)F)c3)C(=O)C2(C)C)cc1)C(=O)OC` [Example 232, Dimethyl 2-(4-{2-[3-(4-cyano-3-trifluoromethylphenyl)-5,5-dimethyl-2,4-dioxoimidazolidin-1-ylmethyl]phenylamino}benzyl)malonate], the IC50 was 112 nM. Regarding `CC1(C)C(=O)N(c2ccc(F)c(C(F)(F)F)c2)C(=O)N1Cc1ccc(F)cc1Nc1ccc(F)nc1` [Example 254, 1-[4-Fluoro-2-(6-fluoropyridin-3-ylamino)benzyl]-3-(4-fluoro-3-trifluoromethylphenyl)-5,5-dimethylimidazolidine-2,4-dione], the IC50 is 2 nM. Take `CC1(C)C(=O)N(c2ccc(F)c(C(F)(F)F)c2)C(=O)N1Cc1ccc(F)cc1Nc1ccc2c(c1)C(=O)CCC2` [Example 204, 1-[4-Fluoro-2-(8-oxo-5,6,7,8-tetrahydronaphthalen-2-ylamino)benzyl]-3-(4-fluoro-3-trifluoromethylphenyl)-5,5-dimethylimidazolidine-2,4-dione]: the IC50 amounted to 46 nM.

Take `CC1(C)C(=O)N(c2ccc(C#N)c(C(F)(F)F)c2)C(=O)N1Cc1ccccc1Nc1ccc2c(c1)COC2=O` [Example 201, 4-{4,4-dimethyl-2,5-dioxo-3-[2-(1-oxo-1,3-dihydroisobenzofuran-5-ylamino)benzyl]imidazolidin-1-yl}-2-trifluoromethylbenzonitrile]: the IC50 amounted to 5 nM. Then `Cc1cc(N2C(=O)N(Cc3ccc(F)cc3Nc3ccc(C(=O)O)cc3)C(C)(C)C2=O)ccc1C#N` [Example 166, 4-{2-[3-(4-cyano-3-methylphenyl)-5,5-dimethyl-2,4-dioxoimidazolidin-1-ylmethyl]-5-fluorophenylamino}benzoic acid], with 76 nM; and `COC(=O)c1ccc(Nc2cc(F)ccc2CN2C(=O)N(c3ccc(F)c(C(F)(F)F)c3)C(=O)C2(C)C)cc1` [Example 154, Methyl 4-{5-fluoro-2-[3-(4-fluoro-3-trifluoromethylphenyl)-5,5-dimethyl-2,4-dioxoimidazolidin-1-ylmethyl]phenylamino}benzoate], with 8 nM.
